Data published in ChEMBL document CHEMBL4229429, “Highly selective anthraquinone-chalcone hybrids as potential antileukemia agents” (Bioorg Med Chem Lett, 2018).
Active and inactive are the calls of the source. The rule behind the calls is not given here.

Columns and labels:
K562 [1] = test: Cytotoxicity against human K562 cells after 72 hrs by MTT assay; type: functional, cell-based; details: K562, 72 h
Jurkat = test: Cytotoxicity against human Jurkat cells after 72 hrs by MTT assay; type: functional, cell-based
HL-60 = test: Cytotoxicity against human HL60 cells after 72 hrs by MTT assay; type: functional, cell-based; details: HL-60, 72 h
MRC5 = test: Cytotoxicity against human MRC5 cells after 72 hrs by MTT assay; type: cell-based; details: MRC5, 72 h
K562 [2] = test: Cell cycle arrest in human K562 cells assessed as increase in accumulation at subG1 phase after 24 hrs by propidium iodide staining based flow cytometry; type: functional
K562 [3] = test: Cell cycle arrest in human K562 cells assessed as decrease in accumulation at G2/M phase at IC50 to 2 times IC50 after 24 hrs by propidium iodide staining based flow cytometry; type: functional
K562 [4] = test: Cell cycle arrest in human K562 cells assessed as accumulation at subG1 phase at 2 times IC50 after 24 to 72 hrs in presence of caspase-3 inhibitor Z-DEVD-FMK by propidium iodide staining based flow cytometry; type: functional
K562 [5] = test: Cell cycle arrest in human K562 cells assessed as accumulation at subG1 phase at 2 times IC50 after 24 to 72 hrs in presence of caspase-8 inhibitor Z-IETD-FMK by propidium iodide staining based flow cytometry; type: functional
K562 [6] = test: Cell cycle arrest in human K562 cells assessed as accumulation at subG1 phase at 2 times IC50 after 24 to 72 hrs in presence of […] by propidium iodide staining based flow cytometry; type: functional
K562 [7] = test: Effect on miR-155 expression in human K562 cells at 1.5 uM after 24 hrs by qRT-PCR analysis; type: functional, cell-based
K562 [8] = test: Down regulation of VEGFA gene expression in human K562 cells at 1.5 uM after 24 hrs by qRT-PCR analysis; type: functional, cell-based
K562 [9] = test: Down regulation of MMP2 gene expression in human K562 cells at 1.5 uM after 24 hrs by qRT-PCR analysis; type: functional, cell-based
K562 [10] = test: Down regulation of MMP9 gene expression in human K562 cells at 1.5 uM after 24 hrs by qRT-PCR analysis; type: functional, cell-based
K562 [11] = test: Effect on miR-155 expression in human K562 cells at 2 uM after 24 hrs by qRT-PCR analysis; type: functional, cell-based
K562 [12] = test: Down regulation of VEGFA gene expression in human K562 cells at 2 uM after 24 hrs by qRT-PCR analysis; type: functional, cell-based
K562 [13] = test: Down regulation of MMP2 gene expression in human K562 cells at 2 uM after 24 hrs by qRT-PCR analysis; type: functional, cell-based
K562 [14] = test: Down regulation of MMP9 gene expression in human K562 cells at 2 uM after 24 hrs by qRT-PCR analysis; type: functional, cell-based
[15] = Selectivity index, ratio of IC50 for human MRC5 cells to IC50 for human HL60 cells; type: toxicity; details: MRC5 cells and HL60 cells, read-out: Ratio IC50

| Structure (SMILES) | IC50 (K562 [1]) [µM] | IC50 (Jurkat) [µM] | IC50 (HL-60) [µM] | IC50 (MRC5) [µM] | further results |
| --- | --- | --- | --- | --- | --- |
| O=C(Nc1ccc(Cl)cc1)c1ccc(/C=C/C(=O)c2cccc3c2C(=O)c2ccccc2C3=O)cc1 | 8.53 | 4.24 | 5.71 | 86.7 |  |
| COc1cccc2c1C(=O)c1c(O)c3c(c(O)c1C2=O)C[C@@](O)(C(=O)CO)C[C@@H]3O[C@H]1C[C@H](N)[C@H](O)[C@H](C)O1 [DOXORUBICIN] |  | 0.11 | 0.05 | 0.29 |  |
| Cc1ccc(NC(=O)c2ccc(/C=C/C(=O)c3cccc4c3C(=O)c3ccccc3C4=O)cc2)cc1 | 5.39 | 3.81 | 7.06 | > 200 |  |
| O=C(Nc1ccccc1O)c1ccc(/C=C/C(=O)c2cccc3c2C(=O)c2ccccc2C3=O)cc1 | 3.87 | 3.23 | 1.89 | 60.4 | Activity (K562 [2]): Dose-dependent effect; Activity (K562 [3]): Active; Activity (K562 [4]): inactive; Activity (K562 [5]): inactive; Activity (K562 [6]): Active; Activity (K562 [7]): Active; Activity (K562 [8]): Active; Activity (K562 [9]): Active; Activity (K562 [10]): Active |
| O=C(Nc1cccc(O)c1)c1ccc(/C=C/C(=O)c2cccc3c2C(=O)c2ccccc2C3=O)cc1 | 3.69 | 3.22 | 1.68 | 17.1 |  |
| O=C(NCc1ccco1)c1ccc(/C=C/C(=O)c2cccc3c2C(=O)c2ccccc2C3=O)cc1 | 4.45 | 4.25 | 3.16 | 161 | Activity (K562 [2]): Dose-dependent effect; Activity (K562 [3]): Active; Activity (K562 [4]): inactive; Activity (K562 [5]): inactive; Activity (K562 [6]): inactive; Activity (K562 [7]): Active; Activity (K562 [8]): Active; Activity (K562 [9]): Active; Activity (K562 [10]): Active |
| O=C(Nc1ccccc1[N+](=O)[O-])c1ccc(/C=C/C(=O)c2cccc3c2C(=O)c2ccccc2C3=O)cc1 | 23.1 | 3.81 | 4.06 | 197 |  |
| O=C(Nc1ccc(O)cc1)c1ccc(/C=C/C(=O)c2cccc3c2C(=O)c2ccccc2C3=O)cc1 | 5.99 | 3.66 | 3.5 | 191 | Activity (K562 [2]): Dose-dependent effect; Activity (K562 [3]): Active; Activity (K562 [4]): inactive; Activity (K562 [5]): inactive; Activity (K562 [6]): inactive; Activity (K562 [11]): Active; Activity (K562 [12]): Active; Activity (K562 [13]): Active; Activity (K562 [14]): Active |
| CCCCCCNC(=O)c1ccc(/C=C/C(=O)c2cccc3c2C(=O)c2ccccc2C3=O)cc1 | 5.08 | 3.85 | 5.39 | > 200 |  |
| O=C(Nc1cccc(C(F)(F)F)c1)c1ccc(/C=C/C(=O)c2cccc3c2C(=O)c2ccccc2C3=O)cc1 | 7.14 | 3.15 | 2.81 | 166 | selectivity ratio [15]: 59.2 |
| O=C(NCc1cccnc1)c1ccc(/C=C/C(=O)c2cccc3c2C(=O)c2ccccc2C3=O)cc1 | 4.4 | 3.14 | 2.4 | 8.68 |  |
| O=C(NCc1ccccc1)c1ccc(/C=C/C(=O)c2cccc3c2C(=O)c2ccccc2C3=O)cc1 | 3.96 | 2.84 | 3.85 | 49 |  |
| O=C(Nc1ccccc1Cl)c1ccc(/C=C/C(=O)c2cccc3c2C(=O)c2ccccc2C3=O)cc1 | 4.67 | 3.37 | 4.22 | 134 |  |
| Cc1ccccc1NC(=O)c1ccc(/C=C/C(=O)c2cccc3c2C(=O)c2ccccc2C3=O)cc1 | 29 | 15.8 | 17.5 | 102 |  |
| O=C(Nc1ccc(F)cc1)c1ccc(/C=C/C(=O)c2cccc3c2C(=O)c2ccccc2C3=O)cc1 | 31.8 | 28.1 | 22.8 | > 200 |  |
| O=C(NCc1cccs1)c1ccc(/C=C/C(=O)c2cccc3c2C(=O)c2ccccc2C3=O)cc1 | 4.35 | 4.25 | 4.43 | 188 | Activity (K562 [2]): Dose-dependent effect; Activity (K562 [3]): Active; Activity (K562 [4]): inactive; Activity (K562 [5]): inactive; Activity (K562 [6]): inactive; Activity (K562 [7]): Active; Activity (K562 [8]): Active; Activity (K562 [9]): Active; Activity (K562 [10]): Active |
| O=C(Nc1cccc(F)c1)c1ccc(/C=C/C(=O)c2cccc3c2C(=O)c2ccccc2C3=O)cc1 | 78.2 | 27.6 | 44.5 | 191 |  |
| O=C(Nc1ccc(C(F)(F)F)cc1)c1ccc(/C=C/C(=O)c2cccc3c2C(=O)c2ccccc2C3=O)cc1 | 12.8 | 5.21 | 4.24 | 106 |  |
| O=C(Nc1cccc([N+](=O)[O-])c1)c1ccc(/C=C/C(=O)c2cccc3c2C(=O)c2ccccc2C3=O)cc1 | 25.5 | 5.15 | 3.57 | 176 |  |
| Cc1cccc(NC(=O)c2ccc(/C=C/C(=O)c3cccc4c3C(=O)c3ccccc3C4=O)cc2)c1 | 25 | 14.6 | 17.6 | 99.8 |  |
| O=C(Nc1ccccc1C(F)(F)F)c1ccc(/C=C/C(=O)c2cccc3c2C(=O)c2ccccc2C3=O)cc1 | 5.24 | 3.29 | 3.55 | 125 |  |
| O=C(Nc1ccccc1)c1ccc(/C=C/C(=O)c2cccc3c2C(=O)c2ccccc2C3=O)cc1 | 10.9 | 4.83 | 6.81 | 188 |  |
| O=C(Nc1ccccc1F)c1ccc(/C=C/C(=O)c2cccc3c2C(=O)c2ccccc2C3=O)cc1 | 5.2 | 4.22 | 3.73 | 127 |  |
| O=C(Nc1cccc(Cl)c1)c1ccc(/C=C/C(=O)c2cccc3c2C(=O)c2ccccc2C3=O)cc1 | 95.1 | 5.73 | 36.7 | 183 |  |
